# Experimental data as given in patent US11634395B2, “Sulfonamide compound or salt thereof” (Taiho Pharmaceutical Co., Ltd., priority 2016, dated 2023).
# Test system: HCC 1806 cells
# Assay: Cell proliferation inhibitory effect on human breast cancer cell line (crystal violet, 72 hours)
# Assay type: cell-based
# Details: read-out: Cell growth suppression IC50
# Description: Human derived breast cancer cell line HCC 1806 cells were daily passaged at a cell density not exceeding 80% in ATCC recommended Roswell Park Memorial Institute medium (RPMI-1640) containing 10% fetal bovine serum (FBS). In order to start the test of cell proliferation inhibitory activity, HCC 1806 cells were suspended in the above medium, after seeing at 180 μl in each well of a 96-well flat bottom plate so that the number of cells per well was 2,000, the cells were cultured at 37° C. for 1 day in an incubator containing 5% carbon dioxide gas. On the next day, the test compound was dissolved in DMSO, and 20 μl of a drug additive solution diluted serially with distilled water to 10 times of the final concentration was added to each well of the culture plate of the cells, and the cells were cultured at 37° C. for 72 hours in an incubator containing 5% carbon dioxide gas. […] 100 μL of an extract solution (0.1 N NaH2PO4: 100% ethanol=1:1) was added to each well and mixed, and the mixture was measured at a wavelength of 540 nm using a plate reader (MTP-450 manufactured by Corona Electric Co., Ltd.). […]
# T: Absorbance of well to which test compound was added
# C: Absorbance of wells to which no test compound was added
# B: Absorbance of wells to which no cell suspension was added
structure (smiles),measurement,value
"Cc1ccc(F)c([C@@H](C)[C@H](NS(=O)(=O)c2ccc(C(F)(F)F)c3c2OCCC3(C)O)c2n[nH]c(=O)o2)c1C (single isomer, unassigned) [Example 225A]",IC50,600 nM
